Experimental data: ChEMBL document CHEMBL1140783, “Design and synthesis of 4-quinolinone 2-carboxamides as calpain inhibitors” (Bioorg Med Chem Lett, 2008)

Biological target: T1, Calpain-1 catalytic subunit (Homo sapiens, UniProt P07384)
T1 sequence (P07384 whole entry): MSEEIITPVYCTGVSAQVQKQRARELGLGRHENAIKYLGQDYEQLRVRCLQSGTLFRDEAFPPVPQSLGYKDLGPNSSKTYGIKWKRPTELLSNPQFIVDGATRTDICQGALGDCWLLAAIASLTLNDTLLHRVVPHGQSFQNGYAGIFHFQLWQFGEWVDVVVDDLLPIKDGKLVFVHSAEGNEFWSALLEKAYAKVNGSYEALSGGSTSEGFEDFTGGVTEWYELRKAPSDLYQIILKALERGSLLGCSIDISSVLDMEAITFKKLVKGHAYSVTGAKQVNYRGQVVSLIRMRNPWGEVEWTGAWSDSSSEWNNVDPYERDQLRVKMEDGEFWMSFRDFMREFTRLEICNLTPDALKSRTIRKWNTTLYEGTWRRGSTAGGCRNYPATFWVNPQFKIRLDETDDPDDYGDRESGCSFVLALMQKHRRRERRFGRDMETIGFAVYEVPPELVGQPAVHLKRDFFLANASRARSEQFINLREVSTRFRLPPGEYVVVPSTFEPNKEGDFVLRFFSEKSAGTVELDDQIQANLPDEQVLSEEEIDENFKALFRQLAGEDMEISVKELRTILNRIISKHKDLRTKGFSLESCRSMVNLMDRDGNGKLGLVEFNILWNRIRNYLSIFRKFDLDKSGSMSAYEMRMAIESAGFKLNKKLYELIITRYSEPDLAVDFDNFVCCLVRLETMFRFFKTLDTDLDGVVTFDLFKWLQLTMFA
Test: Inhibition of human mu-calpain

Row | Structure (SMILES) | IC50
1 | Cc1c(C(=O)N[C@@H](Cc2ccccc2)C(=O)C(N)=O)oc2ccccc2c1=O | 0.04 µM
2 | Cc1c(C(=O)N[C@@H](Cc2ccccc2)C(=O)C(=O)NCc2ccccc2)[nH]c2ccccc2c1=O | 5.01 µM
3 | COc1ccc(CNC(=O)C(=O)[C@H](Cc2ccccc2)NC(=O)c2[nH]c3ccccc3c(=O)c2C)cc1OC | 1.78 µM
4 | Cc1c(C(=O)N[C@@H](Cc2ccccc2)C(=O)C(=O)NCc2ccc(F)cc2)[nH]c2ccccc2c1=O | 5.63 µM
5 | Cc1c(C(=O)N[C@@H](Cc2ccccc2)C(=O)C(=O)NCc2ccccn2)nc2ccccc2c1O | 7.72 µM
6 | COc1ccc(CCNC(=O)C(=O)[C@H](Cc2ccccc2)NC(=O)c2[nH]c3ccccc3c(=O)c2C)cc1 | 0.73 µM
7 | Cc1c(C(=O)N[C@@H](Cc2ccccc2)C(=O)C(=O)NCCc2ccccn2)[nH]c2ccccc2c1=O | 6.28 µM
8 | Cc1c(C(=O)N[C@@H](Cc2ccccc2)C(=O)C(N)=O)nc2ccccc2c1O | 0.71 µM
9 | CNC(=O)C(=O)[C@H](Cc1ccccc1)NC(=O)c1[nH]c2ccccc2c(=O)c1C | 8.62 µM
10 | CCNC(=O)C(=O)[C@H](Cc1ccccc1)NC(=O)c1nc2ccccc2c(O)c1C | 40.2 µM
11 | COc1ccc(CNC(=O)C(=O)[C@H](Cc2ccccc2)NC(=O)c2nc3ccccc3c(O)c2C)cc1 | 3.81 µM
12 | Cc1c(C(=O)N[C@@H](Cc2ccccc2)C(=O)C(=O)NCCc2ccccc2)nc2ccccc2c1O | 3.71 µM
13 | Cc1c(C(=O)N[C@@H](Cc2ccccc2)C(=O)C(=O)NC(C)C)nc2ccccc2c1O | > 50 µM
